Where two headings read alike, the source gives them in different places.
What was measured:
[1] = system: α2-ARs; details: J. Med. Chem. 2007 and 2008 studies; cited from earlier work
[2] = target: T1, α2-ARs (Homo sapiens, UniProt P08913); test: [35S]GTPγS binding assay (agonist stimulation) in human brain cortical membranes; format: biochemical; details: for stimulation of [35S]GTPγS binding (agonist dose-response plot): compound alone
From the text: The α2-ARs are G-protein coupled receptors (GPCRs), and as such, when the endogenous ligand binds to the receptor, a change in the conformation of the G-proteins occurs leading to the exchange of GDP by GTP on the α-subunit, promoting their dissociation into α-GTP and βγ subunits, and resulting in transmembrane signalling. A direct evaluation of this G-protein activity can be made by determining the guanine nucleotide exchange using radiolabelled GTP analogues. The [^35S]GTPγS binding assay constitutes a functional measure of the interaction of the receptor and the G-protein and is a useful tool to distinguish between agonists (increasing the nucleotide binding), inverse agonists (decreasing the nucleotide binding), and neutral antagonists (not affecting the nucleotide binding) of GPCRs.
(§1) Preparation of membranes. Neural membranes (P2 fractions) were prepared from the PFC of human brains obtained at autopsy in the Instituto Vasco de Medicine Legal, Bilbao, Spain. Postmortem human brain samples of each subject (˜1 g) were homogenized using a Teflon-glass grinder (10 up-and-down strokes at 1500 rpm) in 30 volumes of homogenization buffer (1 mM MgCl2, and 5 mM Tris-HCl, pH 7.4) supplemented with 0.25 M sucrose. The crude homogenate was centrifuged for 5 min at 1000×g (4° C.) and the supernatant was centrifuged again for 10 min at 40000×g (4° C.). The resultant pellet was washed twice in 20 volumes of homogenization buffer and recentrifuged in similar conditions. Aliquots of 1 mg protein were stored at −70° C. until assay.
[^35S]GTPγS binding assays. The incubation buffer for measuring [^35S]GTPγS binding to brain membranes contained, in a total volume of 500 μL, 1 mM EGTA, 3 mM MgCl2, 100 mM NaCl, […], 50 mM Tris-HCl at pH 7.4 and 0.5 nM [^35S]GTPγS. Proteins aliquots were thawed and re-suspended in the same buffer. The incubation was started by addition of the membrane suspension (40 μg of membrane proteins) to the previous mixture and was performed at 30° C. for 120 min with shaking. In order to evaluate the influence of the compounds on [^35S]GTPγS binding, 8 concentrations (10^−10 to 10^−3M) of the different compounds were added to the assay. Incubations were terminated by adding 3 mL of ice-cold re-suspension buffer followed by rapid filtration through Whatman GF/C filters pre-soaked in the same buffer. The filters were rinsed twice with 3 mL of ice-cold re-suspension buffer, transferred to vials containing 5 mL. of OptiPhase HiSafe II cocktail (Wallac, UK) and the radioactivity trapped was determined by liquid scintillation spectrometry (Packard 2200CA). […] Non-specific binding of the radioligand was defined as the remaining [^35S]GTPγS binding in the presence of 10 μM unlabelled GTPγS.

[3] = Tail suspension test; format: in vivo, rat
From the text: FIG. 4 illustrates the rat tail suspension test for a number of compounds. The tail suspension test has become one of the most widely used models for assessing antidepressant-like activity in mice. The test is based on the fact that animals subjected to the short-term, inescapable stress of being suspended by their tail, will develop an immobile posture. Antidepressant medications reverse the immobility and promote the occurrence of escape-related behaviour.

[4] = target: T1, α2-ARs; test: UK14304 stimulation of [35S]GTPγS binding in absence or presence of compounds (antagonism test); format: biochemical; details: human brain PFC, in vitro, 10^−5 M
Procedure: as §1
[^35S]GTPγS binding assays. The incubation buffer for measuring [^35S]GTPγS binding to brain membranes contained, in a total volume of 500 μL, 1 mM EGTA, 3 mM MgCl2, 100 mM NaCl, […], 50 mM Tris-HCl at pH 7.4 and 0.5 nM [^35S]GTPγS. Proteins aliquots were thawed and re-suspended in the same buffer. […] The filters were rinsed twice with 3 mL of ice-cold re-suspension buffer, transferred to vials containing 5 mL. of OptiPhase HiSafe II cocktail (Wallac, UK) and the radioactivity trapped was determined by liquid scintillation spectrometry (Packard 2200CA). […]

[5] = system: extracellular NA levels in the PFC; test: In-vivo microdialysis, extracellular NA in the PFC of freely moving rats; design: species or system rat; details: for Emax, extracellular NA levels: local administration by reverse dialysis 1-100 μM in PFC
From the text: The antagonistic properties of derivative 8b in-vitro, were substantiated by testing its effect on noradrenergic transmission in vivo using microdialysis experiments. This technique is a widely accepted method for sampling the extracellular fluid of the brain, allowing the study of different neurotransmitters in the extracellular area where the probe is implanted. This technique has been used to investigate the effect of different compounds on NA concentrations in the PFC, an area widely implicated in depression. The increase of NA concentration in the PFC of freely moving rats after drug administration is accepted as a good predictor for antidepressant activity. In this context, many antidepressants, including the α2-AR antagonist Mirtazapine, are able to increase dialysate levels of NA in the PFC.
Compounds 8b and RX821002 were dissolved in aCSF and perfussed via reverse dialysis at the time indicated by the arrows (every 70 minutes). Data correspond to the mean±standard error mean values from 3 to 5 animals for each group, and are expressed as percentages of the corresponding basal values.
Control rats were administered with the vehicle (saline). Intraperitoneal administration of compound 8b (10 mg/kg) increased NA extracellular concentration by 161±30% in the PFC. Data are given as mean±standard error mean values from 4-5 separate animals for each group and are expressed as percentages of the corresponding basal values. The arrow represents the time of administration of the compound or vehicle.
Microdialysis experiments Male Sprague-Dawley rats (250-300 g) were implanted with a probe in a stereotaxic apparatus under chloral hydrate anaesthesia (400 mg/kg i.p.). The probe was located in the prefrontal cortex (PFC) according to the co-ordinates of the atlas of Paxinos and Watson (AP (anterior to bregma) +2.8 mm, L (lateral from the mid-sagittal suture) +1 mm, DV (ventral from the dura surface) −5 mm). Experiments were performed 20-24 h after the probe implantation and aCSF (148 mM NaCl, 2.7 mM KCl, 1.2 mM CaCl2 and 0.85 mM MgCl2; pH 7.4) was pumped at a flow rate of 1 μl/min (CMA/Microdialysis infusion pump). […] Samples were collected every 35 min and NA concentrations analyzed by HPLC apparatus with amperometric detection (Hewlett-Packard model 1049A) at an oxidizing potential of +650 mV. […] Samples (injection volume 30 μl) were injected and NA analyzed in a run time of 10 min. […] All measures of extracellular NA concentrations are expressed as percentage of the baseline value±s.e.mean. One-way analysis of variance (ANOVA) for control group or two-way ANOVA between control and each treated group was assessed for statistical analysis. […]

T1 sequence (P08913 whole entry): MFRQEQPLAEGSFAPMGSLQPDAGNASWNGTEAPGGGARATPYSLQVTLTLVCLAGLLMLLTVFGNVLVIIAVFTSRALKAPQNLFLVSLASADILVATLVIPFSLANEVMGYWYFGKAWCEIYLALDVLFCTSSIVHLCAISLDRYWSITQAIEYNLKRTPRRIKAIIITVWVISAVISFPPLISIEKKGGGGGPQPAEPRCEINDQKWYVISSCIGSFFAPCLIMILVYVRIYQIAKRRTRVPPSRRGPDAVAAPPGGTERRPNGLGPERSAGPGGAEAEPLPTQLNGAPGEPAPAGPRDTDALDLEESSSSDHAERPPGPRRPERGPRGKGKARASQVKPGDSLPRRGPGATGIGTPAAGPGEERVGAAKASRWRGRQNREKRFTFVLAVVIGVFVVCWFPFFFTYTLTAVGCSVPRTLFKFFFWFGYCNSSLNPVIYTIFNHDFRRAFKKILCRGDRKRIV

| SMILES | Emax [2] [%] | stimulation of [35S]GTPγS binding (agonist dose-response plot) [2] | Emax ([2]; read-out: Emax (%)) [%] | also measured |
| --- | --- | --- | --- | --- |
| c1cc2c(cc1NC1=NCCN1)OCO2 [5′] | – | – | – | behaviour at α2-ARs [1]: antagonist behaviour |
| N=C(N)Nc1ccc2c(c1)CCCC2 [6′] | – | – | – | behaviour at α2-ARs [1]: antagonist behaviour |
| CNc1ccc(NC2=NCCN2)cc1 [Compound 4b, N-imidazolidin-2-ylidene-N′-methyl-benzene-1,4-diamine] | 98 | stimulated binding of [^35S]GTPγS | – | – |
| CCNc1ccc(NC2=NCCN2)cc1 [Compound 5b, N-ethyl-N′-imidazolidin-2-ylidene-benzene-1,4-diamine] | 95 | stimulated binding of [^35S]GTPγS | – | – |
| CCN(C)c1ccc(NC2=NCCN2)cc1 [Compound 6b, N-Ethyl-N′-imidazolidin-2-ylidene-N-methyl-benzene-1,4-diamine] | 103 | stimulated binding of [^35S]GTPγS | – | – |
| CNc1ccc(NC(=N)N)cc1 [Compound 7b, N-(4-methylamino-phenyl)-guanidine] | – | stimulated binding of [^35S]GTPγS | 87 | – |
| CCNc1ccc(NC(=N)N)cc1 [Compound 8b, N-(4-ethylamino-phenyl)-guanidine] | – | did not stimulate binding of [^35S]GTPγS | – | performance against fluoxetine ([3]; 8b 10 mg/kg vs fluoxetine 40 mg/kg): vastly outperforms; time in immobile posture ([3]; FIG. 4, against all other compounds tested): shortest length of time; nature at α2-ARs from shift of UK14304 EC50 [4]: behaves as an antagonist; ability to cross the blood brain barrier (BBB) ([5]; inferred from NA increase after intraperitoneal administration): ability of the compound to cross the blood brain barrier; increase of NA extracellular concentration ([5]; intraperitoneal 10 mg/kg, PFC, percentages of basal values): 161±30%; Emax, extracellular NA levels ([5]; percentages of basal values): 304±54% |
| CCN(C)c1ccc(NC(=N)N)cc1 [Compound 9b, N-[4-(ethyl-methyl-amino)-phenyl]-guanidine] | – | stimulated binding of [^35S]GTPγS | 92 | – |
| CCN(CC)c1ccc(NC(=N)N)cc1 [Compound 17, reference compound] | – | stimulated binding of [^35S]GTPγS | 89 | – |
| COC1(C2=NCCN2)COc2ccccc2O1 (stereo not shown) [RX821002, 2-methoxy-idazoxan, reference compound] | – | – | – | Emax, extracellular NA levels ([5]; percentages of basal values): 290±35% |

Reference: patent US20100160332A1, “a2-Adrenoceptor Ligands” (The Provost, Fellows and Scholars of the College of the …, priority 2008, published 2010)
